≈ marks a conversion by molar mass, not a printed value.
How the values were obtained:
[1] = system: Enterobacter aerogenes C32; format: cell-based; conditions: Klebsiella aerogenes, C32, 24 h
[2] = system: Pseudomonas aeruginosa X239; format: cell-based; conditions: X239, 24 h
[3] = system: Staphylococcus epidermidis 270; format: cell-based; conditions: Staphylococcus epidermidis, 270, 24 h
[4] = system: Bacteroides vulgatis 1211; format: cell-based; conditions: Bacteroides, 1211, 24 h
Salmonella sp = format: cell-based; conditions: 24-hour incubation
Source text: (§1) The formula 1 compounds (A82810 compounds) have antibacterial and anticoccidial activity. A82810 compounds are especially active against anaerobic bacteria. […]

[5] = system: Clostridium septicum 1128; format: cell-based; conditions: 24-hour incubation
Source text: as §1

Shigella sonnei = format: cell-based; conditions: 24-hour incubation
Source text: as §1

[6] = system: Clostridium difficile 2994; format: cell-based; conditions: Clostridioides difficile, 24-hour incubation
Source text: as §1

[7] = system: E. acervulina Strain FS-316; experiment: anticoccidial feed test in infected chickens, ionophore-resistant strain; format: in vivo
[8] = system: Fusobacterium symbiosum 1470; format: cell-based; conditions: Fusobacterium, 1470, 24 h
[9] = system: Enterobacter aerogenes EB17; format: cell-based; conditions: Klebsiella aerogenes, EB17, 24 h
Friend leukemia virus = experiment: antiviral tissue-culture test; format: cell-based
Peptococcus prevoti 1281 = format: cell-based; conditions: 24 h
[10] = system: Propionibacterium acnes 79; format: cell-based; conditions: Cutibacterium acnes, 79, 24 h
[11] = system: Eimeria acervulina Strain 59 And E. tenella Strain 155; experiment: anticoccidial feed test in infected chickens, ionophore-sensitive strains; format: in vivo
[12] = system: Fusobacterium necrophorum 6054A; format: cell-based; conditions: 24 h
[13] = system: Eimeria acervulina H & C and Eimeria tenella Wis; experiment: anticoccidial feed test in infected chickens, ionophore-sensitive strains; format: in vivo
Serratia marcescens X99 = format: cell-based; conditions: X99, 24 h
[14] = system: Bacteroides fragilis 1877; format: cell-based; conditions: Bacteroides fragilis, 1877, 24 h
[15] = system: Eimeria maxima Strain FS-177; experiment: anticoccidial feed test in infected chickens, ionophore-sensitive strain; format: in vivo
[16] = system: Bacteroides fragilis 1936B; format: cell-based; conditions: 24 h
[17] = system: Streptococcus pneumoniae Park 1; format: cell-based; conditions: 24 h
[18] = system: Pseudomonas aeruginosa PS18; format: cell-based; conditions: PS18, 24 h
[19] = system: Bacteroides corrodens 1874; format: cell-based; conditions: Eikenella corrodens, 1874, 24 h
[20] = system: Pseudomonas aeruginosa PS72; format: cell-based; conditions: PS72, 24 h
[21] = system: Staphylococcus aureus X1.1; format: cell-based; conditions: X1.1, 24 h
[22] = effect on growth of uninfected chicks; format: in vivo; conditions: Table XXI, Compound ppm r3-r7: 0,8,10,12,14
Source text: Newly hatched chickens are raised in a coccidial-free environment for a seven-day period. On the morning of the eighth day, the chickens are weighed and assigned to treatment groups.
Each group of chicks (usually 4 or 5 chicks per group) is housed in a battery cage during the experiment. A constant lighting schedule and ad libitum access to feed (each experiment contains non-medicated and drug-medicated treatments) and water are provided for the chicks in each battery. Two days after the experiment is initiated, chicks that are designated to be infected are crop-intubated with a pure suspension of coccidial oocysts. The oocyst dosage used in each test is designed to produce clinical coccidiosis in infected nonmedicated animals.
After an additional seven-day growth period, the experiment is terminated. Each group of chicks is weighed, and the amount of feed consumed by each group is determined. From these measurements, final bird weights and efficiency of feed utilization are calculated. All birds are then sacrificed, and the intestine. and cecum are examined for the presence of coccidial-induced lesions.

[23] = system: Peptostreptococcus anaerobius 1451; format: cell-based; conditions: Peptostreptococcus anaerobius, 1451, 24 h
Escherichia coli TEM = format: cell-based; conditions: 24 h
Proteus sp. = format: cell-based; conditions: 24 h
[24] = system: Herpes simplex viruses (HSV II); experiment: antiviral tissue-culture test; format: cell-based, Herpes simplex virus
Bacteroides fragilis 111 = format: cell-based; conditions: Bacteroides fragilis, 111, 24 h
Klebsiella sp. = format: cell-based; conditions: 24 h
[25] = system: Streptococcus pyogenes C203; format: cell-based; conditions: C203, 24 h

SMILES: CC[C@@H](O)[C@]1(C)C[C@H](C)[C@@](O)([C@H]2C[C@H](C)[C@H]([C@]3(C)C[C@@H](O[C@H]4CC[C@H](OC)[C@@H](C)O4)[C@H]([C@]4(C)CC[C@@]5(O[C@H]([C@@H](C)[C@@H](OC)[C@H](C)C(=O)O)[C@H](C)[C@@H](OC)[C@H]5C)O4)O3)O2)O1 [Example A82810]
- MIC [1]: 8 µg/mL (≈ 9.49 µM)
- MIC [2]: 0.25 µg/mL (≈ 0.297 µM)
- MIC [3]: 1 µg/mL (≈ 1.19 µM)
- MIC [4]: 4 µg/mL (≈ 4.74 µM)
- MIC (Salmonella sp): > 128 µg/mL
- MIC [5]: 0.5 µg/mL (≈ 0.593 µM)
- MIC (Shigella sonnei): 2 µg/mL (≈ 2.37 µM)
- MIC [6]: 0.5 µg/mL (≈ 0.593 µM)
- AVERAGE INTESTINAL LESION SCORES ([7]; 0.5 ppm): 7.3
- WEIGHT GAIN, PERCENT OF CONTROL ([7]; 0.5 ppm): 72% OF CONTROL
- AVERAGE INTESTINAL LESION SCORES ([7]; 1 ppm): 7.8
- WEIGHT GAIN, PERCENT OF CONTROL ([7]; 1 ppm): 73% OF CONTROL
- AVERAGE INTESTINAL LESION SCORES ([7]; 1.5 ppm): 7.9
- WEIGHT GAIN, PERCENT OF CONTROL ([7]; 1.5 ppm): 73% OF CONTROL
- AVERAGE INTESTINAL LESION SCORES ([7]; 2 ppm): 8.8
- WEIGHT GAIN, PERCENT OF CONTROL ([7]; 2 ppm): 76% OF CONTROL
- MIC [8]: 0.5 µg/mL (≈ 0.593 µM)
- MIC [9]: 8 µg/mL (≈ 9.49 µM)
- active at levels as low as (Friend leukemia virus): 0.04 µg/mL
- MIC (Peptococcus prevoti 1281): ≤ 0.25 µg/mL
- MIC [10]: 2 µg/mL (≈ 2.37 µM)
- TOTAL LESION SCORE ([11]; 0.5 ppm): 12.1
- WEIGHT GAIN, PERCENT OF CONTROL ([11]; 0.5 ppm): 60% OF CONTROL
- TOTAL LESION SCORE ([11]; 1 ppm): 10.7
- WEIGHT GAIN, PERCENT OF CONTROL ([11]; 1 ppm): 81% OF CONTROL
- AVERAGE CECAL LESION SCORES ([11]; 1.25 ppm): 3.2
- AVERAGE INTESTINAL LESION SCORES ([11]; 1.25 ppm): 6.0
- WEIGHT GAIN, PERCENT OF CONTROL ([11]; 1.25 ppm): 87% OF CONTROL
- AVERAGE CECAL LESION SCORES ([11]; 1.5 ppm): 2.6
- AVERAGE INTESTINAL LESION SCORES ([11]; 1.5 ppm): 3.6
- AVERAGE CECAL LESION SCORES ([11]; 1.75 ppm): 2.0
- AVERAGE INTESTINAL LESION SCORES ([11]; 1.75 ppm): 2.3
- WEIGHT GAIN, PERCENT OF CONTROL ([11]; 1.75 ppm): 82% OF CONTROL
- MIC [12]: ≤ 0.25 µg/mL
- AVERAGE INTESTINAL LESION SCORES ([13]; 2 ppm): 1.2
- WEIGHT GAIN, PERCENT OF CONTROL ([13]; 2 ppm): 98% OF CONTROL
- AVERAGE INTESTINAL LESION SCORES ([13]; 6 ppm): 0.4
- WEIGHT GAIN, PERCENT OF CONTROL ([13]; 6 ppm): 91% OF CONTROL
- AVERAGE INTESTINAL LESION SCORES ([13]; 10 ppm): 0.3
- WEIGHT GAIN, PERCENT OF CONTROL ([13]; 10 ppm): 80% OF CONTROL
- MIC (Serratia marcescens X99): > 128 µg/mL
- MIC [14]: 8 µg/mL (≈ 9.49 µM)
- AVERAGE INTESTINAL LESION SCORES ([15]; 2 ppm): 1.9
- AVERAGE INTESTINAL LESION SCORES ([15]; 6 ppm): 0.6
- WEIGHT GAIN, PERCENT OF CONTROL ([15]; 6 ppm): 108% OF CONTROL
- AVERAGE INTESTINAL LESION SCORES ([15]; 10 ppm): 0.2
- WEIGHT GAIN, PERCENT OF CONTROL ([15]; 10 ppm): 102% OF CONTROL
- MIC [16]: 8 µg/mL (≈ 9.49 µM)
- MIC [17]: 1 µg/mL (≈ 1.19 µM)
- MIC [18]: > 128 µg/mL
- MIC [19]: 8 µg/mL (≈ 9.49 µM)
- MIC [20]: 0.25 µg/mL (≈ 0.297 µM)
- MIC [21]: 1 µg/mL (≈ 1.19 µM)
- WEIGHT GAIN, PERCENT OF CONTROL ([22]; A82810 1.25 ppm): 98% OF CONTROL
- WEIGHT GAIN, PERCENT OF CONTROL ([22]; A82810 1.5 ppm): 101% OF CONTROL
- WEIGHT GAIN, PERCENT OF CONTROL ([22]; A82810 1.75 ppm): 105% OF CONTROL
- WEIGHT GAIN, PERCENT OF CONTROL ([22]; A82810 2.0 ppm): 99% OF CONTROL
- MIC [23]: ≤ 0.25 µg/mL
- MIC (Escherichia coli TEM): > 128 µg/mL
- MIC (Proteus sp.): > 128 µg/mL
- active at levels as low as [24]: 1.56 µg/mL
- MIC (Bacteroides fragilis 111): 8 µg/mL (≈ 9.49 µM)
- MIC (Klebsiella sp.): > 128 µg/mL
- MIC [25]: 1 µg/mL (≈ 1.19 µM)

From patent EP0341019A2, “Polyether antibiotic” (priority 1988, dated 1989)
